According to article PMC7402526, “An in vitro quantitative systems pharmacology approach for deconvolving mechanisms of drug-induced, multilineage cytopenias” (PLoS Computational Biology, 2020):

What was measured:
monocytes (monocyte-lin) = test: MLTA, Mono: concentration-response and QSP model fit; assay type: cell-based, human; conditions: Homo sapiens, Monocyte, 144 h
Method in brief: (§1)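 Freeze-thawed primary human bone marrow CD34+ cells were cultured 6 days in SFEM II with a cytokine cocktail, drug added on day 0. Subsets were counted by 17-parameter flow cytometry with TruCount beads and normalized to vehicle wells. An Emax QSP model (Emax 0–2, L1 regularization) was fitted to these counts.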

[1] = test system: hematopoietic stem cells (HSCs); test: Multi-lineage toxicity assay (MLTA), HSCs: concentration-response and QSP model fit; assay type: cell-based, human
Method in brief: (§2)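 Parameters come from fitting an Emax-based QSP model, with L1 regularization and Emax ranging 0–2, to vehicle-normalized, bead-corrected flow cytometry counts. Counts came from human bone marrow CD34+ cells treated from day 0 through a 6-day multi-lineage cytokine culture in SFEM II, using 2–7 donors per drug.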

granulocytes (Gran-lin) = test: MLTA, Gran: concentration-response and QSP model fit; assay type: cell-based, human
Method in brief: as §1

B cells (B-lin) = test: MLTA, B-lin: concentration-response and QSP model fit; assay type: cell-based, human; conditions: Homo sapiens, B-cell, 144 h
Method in brief: as §2

MK cells (MK-lin) = test: MLTA, MK: concentration-response and QSP model fit; assay type: cell-based, human; conditions: Homo sapiens, 144 h
Method in brief: as §2

[2] = test system: lymphocyte progenitors (LymP); test: MLTA, LymP: concentration-response and QSP model fit; assay type: cell-based, human; conditions: Homo sapiens, Lymphocyte, 144 h
Method in brief: as §2

[3] = test system: granulocyte-macrophage progenitor (GMPs); test: MLTA, GMPs: concentration-response and QSP model fit; assay type: cell-based, human; conditions: Homo sapiens, 144 h, 6 days, normalized to vehicle control, read-out: GMPs normalized cell count
Method in brief: as §2

[4] = test system: total dead cells (totalDeadCells); test: MLTA, total dead cells concentration-response; assay type: cell-based; conditions: Homo sapiens, 144 h, 6 days, normalized to vehicle control, read-out: total_dead normalized cell count
Method in brief: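 Freeze-thawed primary human bone marrow CD34+ cells in SFEM II with cytokine cocktail, drug added day 0, 6 days at 37°C, 5% CO2. Live/dead counts by 17-parameter flow cytometry with DAPI exclusion, bead-normalized, volume-corrected to cells/mL. Normalized per donor to mean of six vehicle wells; 2–7 donors pooled.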

[5] = QSP model fit of 6-day MLTA data
[6] = cell-killing component, max(0, EmaxT-1)

EC50 (monocytes (monocyte-lin); [5]): 30 nM | EC50 (granulocytes (Gran-lin); Homo sapiens, 144 h, QSP model fit of 6-day MLTA data): 15.8 nM | EC50 (B cells (B-lin); [5]): 36.7 nM | EC50 (MK cells (MK-lin); [5]): 51.7 nM
SMILES: CC(=O)O[C@H]1C(=O)[C@@]2(C)[C@H]([C@H](OC(=O)c3ccccc3)[C@]3(O)C[C@H](OC(=O)[C@H](O)[C@@H](NC(=O)c4ccccc4)c4ccccc4)C(C)=C1C3(C)C)[C@]1(OC(C)=O)CO[C@@H]1C[C@@H]2O [paclitaxel]
activity at 0.0002 µM (monocytes (monocyte-lin); dose 0.2 nM, 6 days, normalized to vehicle control, read-out: Mon normalized cell count): 90.9% | activity at 0.001 µM (monocytes (monocyte-lin); dose 1 nM, 6 days, normalized to vehicle control, read-out: Mon normalized cell count): 93.8% | activity at 0.005 µM (monocytes (monocyte-lin); dose 5 nM, 6 days, normalized to vehicle control, read-out: Mon normalized cell count): 77% | activity at 0.025 µM (monocytes (monocyte-lin); dose 25 nM, 6 days, normalized to vehicle control, read-out: Mon normalized cell count): 0.638% | activity at 0.1 µM (monocytes (monocyte-lin); dose 100 nM, 6 days, normalized to vehicle control, read-out: Mon normalized cell count): 0.419% | activity at 0.5 µM (monocytes (monocyte-lin); dose 500 nM, 6 days, normalized to vehicle control, read-out: Mon normalized cell count): 1.04% | activity at 2.5 µM (monocytes (monocyte-lin); dose 2500 nM, 6 days, normalized to vehicle control, read-out: Mon normalized cell count): 0.347% | Emax (monocytes (monocyte-lin); parameter from QSP model fitting, read-out: Emax_drug_Mono): 25.8% | EC50 ([1]; Homo sapiens, Hematopoietic stem cell, 144 h, QSP model fit of 6-day MLTA data): 62.3 nM | activity at 0.0002 µM ([1]; Homo sapiens, Hematopoietic stem cell, 144 h, dose 0.2 nM, 6 days, normalized to vehicle control, read-out: HSCs normalized cell count): 109% | activity at 0.001 µM ([1]; Homo sapiens, Hematopoietic stem cell, 144 h, dose 1 nM, 6 days, normalized to vehicle control, read-out: HSCs normalized cell count): 87.5% | activity at 0.005 µM ([1]; Homo sapiens, Hematopoietic stem cell, 144 h, dose 5 nM, 6 days, normalized to vehicle control, read-out: HSCs normalized cell count): 118% | activity at 0.025 µM ([1]; Homo sapiens, Hematopoietic stem cell, 144 h, dose 25 nM, 6 days, normalized to vehicle control, read-out: HSCs normalized cell count): 28.1% | activity at 0.1 µM ([1]; Homo sapiens, Hematopoietic stem cell, 144 h, dose 100 nM, 6 days, normalized to vehicle control, read-out: HSCs normalized cell count): 4.8% | activity at 0.5 µM ([1]; Homo sapiens, Hematopoietic stem cell, 144 h, dose 500 nM, 6 days, normalized to vehicle control, read-out: HSCs normalized cell count): 1.08% | activity at 2.5 µM ([1]; Homo sapiens, Hematopoietic stem cell, 144 h, dose 2500 nM, 6 days, normalized to vehicle control, read-out: HSCs normalized cell count): 1.34% | Emax ([1]; Homo sapiens, Hematopoietic stem cell, 144 h, parameter from QSP model fitting, read-out: Emax_drug_HSC): 119% | EmaxCK,HSC [1, 6]: 0.188 day⁻¹ | activity at 0.0002 µM (granulocytes (Gran-lin); Homo sapiens, 144 h, dose 0.2 nM, 6 days, normalized to vehicle control, read-out: Gran normalized cell count): 104% | activity at 0.001 µM (granulocytes (Gran-lin); Homo sapiens, 144 h, dose 1 nM, 6 days, normalized to vehicle control, read-out: Gran normalized cell count): 122% | activity at 0.005 µM (granulocytes (Gran-lin); Homo sapiens, 144 h, dose 5 nM, 6 days, normalized to vehicle control, read-out: Gran normalized cell count): 92.8% | activity at 0.025 µM (granulocytes (Gran-lin); Homo sapiens, 144 h, dose 25 nM, 6 days, normalized to vehicle control, read-out: Gran normalized cell count): 0.105% | activity at 0.1 µM (granulocytes (Gran-lin); Homo sapiens, 144 h, dose 100 nM, 6 days, normalized to vehicle control, read-out: Gran normalized cell count): 0.0692% | activity at 0.5 µM (granulocytes (Gran-lin); Homo sapiens, 144 h, dose 500 nM, 6 days, normalized to vehicle control, read-out: Gran normalized cell count): 0.0215% | activity at 2.5 µM (granulocytes (Gran-lin); Homo sapiens, 144 h, dose 2500 nM, 6 days, normalized to vehicle control, read-out: Gran normalized cell count): 0.0279% | Emax (granulocytes (Gran-lin); Homo sapiens, 144 h, parameter from QSP model fitting, read-out: Emax_drug_Gran): 236% | EmaxCK,Gran (granulocytes (Gran-lin); [6]): 1.360 day⁻¹ | activity at 0.0002 µM (B cells (B-lin); dose 0.2 nM, 6 days, normalized to vehicle control, read-out: B-lin normalized cell count): 102% | activity at 0.001 µM (B cells (B-lin); dose 1 nM, 6 days, normalized to vehicle control, read-out: B-lin normalized cell count): 109% | activity at 0.005 µM (B cells (B-lin); dose 5 nM, 6 days, normalized to vehicle control, read-out: B-lin normalized cell count): 75.9% | activity at 0.025 µM (B cells (B-lin); dose 25 nM, 6 days, normalized to vehicle control, read-out: B-lin normalized cell count): 1.34% | activity at 0.1 µM (B cells (B-lin); dose 100 nM, 6 days, normalized to vehicle control, read-out: B-lin normalized cell count): 0.231% | activity at 0.5 µM (B cells (B-lin); dose 500 nM, 6 days, normalized to vehicle control, read-out: B-lin normalized cell count): 0.372% | activity at 2.5 µM (B cells (B-lin); dose 2500 nM, 6 days, normalized to vehicle control, read-out: B-lin normalized cell count): 0.335% | Emax (B cells (B-lin); parameter from QSP model fitting, read-out: Emax_drug_B): 91.4% | activity at 0.0002 µM (MK cells (MK-lin); dose 0.2 nM, 6 days, normalized to vehicle control, read-out: MK normalized cell count): 108% | activity at 0.001 µM (MK cells (MK-lin); dose 1 nM, 6 days, normalized to vehicle control, read-out: MK normalized cell count): 110% | activity at 0.005 µM (MK cells (MK-lin); dose 5 nM, 6 days, normalized to vehicle control, read-out: MK normalized cell count): 111% | activity at 0.025 µM (MK cells (MK-lin); dose 25 nM, 6 days, normalized to vehicle control, read-out: MK normalized cell count): 9.64% | activity at 0.1 µM (MK cells (MK-lin); dose 100 nM, 6 days, normalized to vehicle control, read-out: MK normalized cell count): 0.962% | activity at 0.5 µM (MK cells (MK-lin); dose 500 nM, 6 days, normalized to vehicle control, read-out: MK normalized cell count): 0.754% | activity at 2.5 µM (MK cells (MK-lin); dose 2500 nM, 6 days, normalized to vehicle control, read-out: MK normalized cell count): 0.792% | Emax (MK cells (MK-lin); parameter from QSP model fitting, read-out: Emax_drug_MK): 25.9% | activity at 0.0002 µM ([2]; dose 0.2 nM, 6 days, normalized to vehicle control, read-out: LymP normalized cell count): 122% | activity at 0.001 µM ([2]; dose 1 nM, 6 days, normalized to vehicle control, read-out: LymP normalized cell count): 143% | activity at 0.005 µM ([2]; dose 5 nM, 6 days, normalized to vehicle control, read-out: LymP normalized cell count): 61.3% | activity at 0.025 µM ([2]; dose 25 nM, 6 days, normalized to vehicle control, read-out: LymP normalized cell count): 9.53% | activity at 0.1 µM ([2]; dose 100 nM, 6 days, normalized to vehicle control, read-out: LymP normalized cell count): 5.4% | activity at 0.5 µM ([2]; dose 500 nM, 6 days, normalized to vehicle control, read-out: LymP normalized cell count): 7.34% | activity at 2.5 µM ([2]; dose 2500 nM, 6 days, normalized to vehicle control, read-out: LymP normalized cell count): 9.6% | Emax ([2]; parameter from QSP model fitting, read-out: Emax_drug_LymP): 0.16% | activity at 0.0002 µM ([3]; dose 0.2 nM): 126% | activity at 0.001 µM ([3]; dose 1 nM): 119% | activity at 0.005 µM ([3]; dose 5 nM): 109% | activity at 0.025 µM ([3]; dose 25 nM): 3.34% | activity at 0.1 µM ([3]; dose 100 nM): 0.101% | activity at 0.5 µM ([3]; dose 500 nM): 0.687% | activity at 2.5 µM ([3]; dose 2500 nM): 0.327% | activity at 0.0002 µM ([4]; dose 0.2 nM): 105% | activity at 0.001 µM ([4]; dose 1 nM): 113% | activity at 0.005 µM ([4]; dose 5 nM): 115% | activity at 0.025 µM ([4]; dose 25 nM): 75.5% | activity at 0.1 µM ([4]; dose 100 nM): 47.5% | activity at 0.5 µM ([4]; dose 500 nM): 40.7% | activity at 2.5 µM ([4]; dose 2500 nM): 46.1%
